The structures appear in SMILES notation.

A word on the IC50: it is the concentration that gives 50% inhibition.

This test has as its system DU-145 cells. As to the kind of experiment: Cell proliferation assay (Alamar-Blue), proliferation inhibition of DU-145 cells. The following applies: Homo sapiens, 72 h, 3 days incubation, Alamar-Blue fluorescence. Type of test: cell-based. How it is done:
Protocol for Cell Proliferation Assay:
This homogeneous assay involves simply adding a single reagent, the Alamar-Blue, to the cell culture and measuring the fluorescence intensity (excitation wavelength=530 nm, emission wavelength=590 nm) after an incubation step. The Alamar-Blue reagent utilizes the redox dye resazurin, which is not fluorescent, but upon reduction by metabolically active cells is converted into a highly fluorescent product (resorufin). A decrease in fluorescence in the presence of a test compound indicates reduced proliferation. This change in signal is proportional to the number of viable cells and used as a measure of relative cytotoxicity. Therefore, the fluorescence intensity observed in this assay is a true measure of the viable proliferative cells.
• 2 mM stock of Paclitaxel in DMSO. • DMSO (Panreac, Cat. number 141954.1611) • Resazurin sodium salt (Sigma, R-7071). 50 mM stock in DMSO. Equipment • Biomek FX Laboratory Automated Workstation (Beckman Coulter Inc., Fullerton, Calif.) • CO2 incubator (VWR Science, USA) • Bright line Hemacytometer (Z359629, Sigma, IL, USA) Materials • 384-deep well plates (Greiner, N^o 781270) • 384-well optical bottom tissue culture plates (Greiner, No. 82051-282) Propagation CONDITIONS: 37° C., air 95%; carbon dioxide (CO2) 5%, humidified atmosphere. Subculturing: • Cells were grown in 175 cm^2 flasks to 90-100% of confluency. • Culture medium (RPMI-1640 (Paneco, C310)+10% fetal bovine serum (FBS)) was aspirated and cell layer was briefly rinsed with 0.53 mM EDTA (ethylenediaminetetraacetic acid) solution to remove all traces of serum. • 2 ml of 0.2% trypsin/0.53 mM EDTA solution was added to cells. • Flasks were returned to incubator for 5 min to allow cells detachment. • Add 6.0 ml of culture medium. • Single cell suspension was created by gently pipetting. • Cells are counted using a Hematocytometer and suspension with desirable cell concentration is prepared.
To test proliferation inhibition DU-145 cells were plated in 384-well plate at the density 4000 cells/well. Next day 4 mM solutions of compounds in DMSO were diluted 100 times in medium and added to cells to final concentration 20 uM (40 ul of cells+40 ul of compounds). Taxol at final concentration 1 uM was used as positive control. Cells were incubated with compounds for 3 days. After that Alamar-Blue was added to cells to final concentration of 50 uM. After incubation for 4-6 hours at 37° C., fluorescence in plate was read using fluorescence plate reader Wallac 1420 (530 nm excitation filter, 590 nm emission filter). Proliferation inhibition was calculated using formula: % INH=100*((Fnegative−compound signal)/(Fnegative−Fpositive)), • Fnegative—DMSO was added to cells (viable cells) • Fpositive—taxol (1 uM) was added to cells (number of cells at the first day of incubation)
The compound `COc1ccc(C(=O)N2CCc3cc4cc(C)ccc4nc32)cc1OC` [Example 2, (3,4-dimethoxyphenyl)(6-methyl-2,3-dihydro-1H-pyrrolo[2,3-b]quinolin-1-yl)methanone] returned an IC50 of 0.183 µM.

Turning to `COc1cc(C(=O)N2CCc3cc4ccccc4nc32)cc(OC)c1OC` [Example 1, 2,3-dihydro-1H-pyrrolo[2,3-b]quinolin-1-yl(3,4,5-trimethoxyphenyl)methanone], the IC50 came to 0.114 µM.

Compound `COc1cccc(C(=O)N2CCc3cc4cc(C)ccc4nc32)c1` [Example 3, (3-methoxyphenyl)(6-methyl-2,3-dihydro-1H-pyrrolo[2,3-b]quinolin-1-yl)methanone] showed an IC50 of 0.613 µM.

`CC1=Cc2c3c(ccc2=N1)=CCCN3C(=O)c1cccc(F)c1` [Example 10, (3-fluorophenyl)(8-methyl-2,3-dihydro-1H-pyrrolo[2,3-h]quinolin-1-yl)methanone] had an IC50 of 4400 µM.

Consider `COc1ccccc1C(=O)N1CCc2cc3cccc(C)c3nc21` [Example 6, (2-methoxyphenyl)(8-methyl-2,3-dihydro-1H-pyrrolo[2,3-b]quinolin-1-yl)methanone], for which the IC50 stood at 16.1 µM. Compared with the last compound, the IC50 is about 270-fold lower.

For `Cc1cccc2cc3c(nc12)N(C(=O)c1ccccc1Br)CC3` [Example 11, (2-bromophenyl)(8-methyl-2,3-dihydro-1H-pyrrolo[2,3-b]quinolin-1-yl)methanone], the IC50 was determined as 15000 µM.

For `Cc1ccc(C(=O)N2CCC=c3cc(C)c4c(c32)C=CN=4)cc1` [Example 5, (6-methyl-2,3-dihydro-1H-pyrrolo[2,3-h]quinolin-1-yl)(4-methylphenyl)methanone], the IC50 turned out to be 10.3 µM.

Turning to `O=C(c1ccccc1Br)N1CCc2cc3ccccc3nc21` [Example 9, (2-bromophenyl)(2,3-dihydro-1H-pyrrolo[2,3-b]quinolin-1-yl)methanone], the IC50 is 238 µM.

As for `CC1=Cc2c3c(ccc2=N1)=CCCN3C(=O)c1ccccc1C` [Example 7, (8-methyl-2,3-dihydro-1H-pyrrolo[2,3-h]quinolin-1-yl)(2-methylphenyl)methanone], the IC50 was determined as 17.2 µM.

As to `COc1ccccc1C(=O)N1CCc2cc3ccccc3nc21` [Example 4, 2,3-dihydro-1H-pyrrolo[2,3-b]quinolin-1-yl(2-methoxyphenyl)methanone], the IC50 amounted to 3.62 µM.

`Cc1cccc2cc3c(nc12)N(C(=O)c1ccccc1F)CC3` [Example 8, (2-fluorophenyl)(8-methyl-2,3-dihydro-1H-pyrrolo[2,3-b]quinolin-1-yl)methanone]: 134 µM corresponded to half-maximal inhibition (IC50).

The values above are taken from patent US8420815B1, “Anti-cancer agents based on N-acyl-2, 3-dihydro-1H-pyrrolo[2,3-b]quinoline derivatives and a method of making” (U.S. Department of Energy, priority 2010, dated 2013).
